Values after ≈ are worked out from the molar mass of the structure shown. Where two headings read alike, the source gives them in different places.
Tests used:
[1] = test system: Staphylococcus aureus FDA 209P JC-1; assay: in vitro antibacterial activity, standard agar dilution method; assay type: cell-based; conditions: FDA209P, read-out: minimum inhibitory concentration (MIC)
[2] = test system: Staphylococcus aureus NR 2855; assay: as above; assay type: cell-based
[3] = test system: Staphylococcus aureus Smith; assay: as above; assay type: cell-based; conditions: Staphylococcus aureus Smith; aerobic; agar dilution; read-out: minimum inhibitory concentration (MIC)
[4] = test system: Staphylococcus epidermidis IFO 12993; assay: as above; assay type: cell-based; conditions: IFO12993, aerobic, read-out: minimum inhibitory concentration (MIC)
[5] = test system: Staphylococcus epidermidis NR 2942; assay: as above; assay type: cell-based; conditions: NR2942, aerobic, read-out: minimum inhibitory concentration (MIC)
[6] = test system: Enterococcus faecalis NR 2943; assay: as above; assay type: cell-based; conditions: NR2943, aerobic, read-out: minimum inhibitory concentration (MIC)
[7] = test system: Citrobacter freundii IFO 12681; assay: as above; assay type: cell-based; conditions: IFO12681, aerobic, read-out: minimum inhibitory concentration (MIC)
[8] = test system: Enterobacter aerogenes NR 2945; assay: as above; assay type: cell-based; conditions: Klebsiella aerogenes, NR2945, aerobic, read-out: minimum inhibitory concentration (MIC)
[9] = test system: Enterobacter cloacae NR 2946; assay: as above; assay type: cell-based; conditions: NR2946, aerobic, read-out: minimum inhibitory concentration (MIC)
[10] = test system: Escherichia coli NIHJ JC-2; assay: as above; assay type: cell-based; conditions: NIHJJC2, aerobic, read-out: minimum inhibitory concentration (MIC)
[11] = test system: Escherichia coli NR 2630; assay: as above; assay type: cell-based; conditions: NR2630; Escherichia coli NR 2630; aerobic; agar dilution; read-out: minimum inhibitory concentration (MIC)
[12] = test system: Klebsiella pneumoniae FDA PCI 602; assay: as above; assay type: cell-based; conditions: FDAPCI602, aerobic, read-out: minimum inhibitory concentration (MIC)
[13] = test system: Bordetella bronchiseptica ATCC 4617; assay: as above; assay type: cell-based; conditions: ATCC4617, aerobic, read-out: minimum inhibitory concentration (MIC)
[14] = test system: Proteus rettgeri ATCC 14505; assay: as above; assay type: cell-based; conditions: Providencia rettgeri, ATCC14505, aerobic, read-out: minimum inhibitory concentration (MIC)
[15] = test system: Proteus vulgaris OX19 ATCC 6898; assay: as above; assay type: cell-based; conditions: ATCC6898, aerobic, read-out: minimum inhibitory concentration (MIC)
[16] = test system: Pseudomonas aeruginosa NR 2950; assay: as above; assay type: cell-based; conditions: NR2950, aerobic, read-out: minimum inhibitory concentration (MIC)
[17] = test system: Pseudomonas stutzeri IFO 12695; assay: as above; assay type: cell-based; conditions: Stutzerimonas stutzeri, IFO12695, aerobic, read-out: minimum inhibitory concentration (MIC)
[18] = test system: Serratia marcescens IFO 12648; assay: as above; assay type: cell-based; conditions: IFO12648, aerobic, read-out: minimum inhibitory concentration (MIC)
[19] = test system: Salmonella typhimurium IFO 12529; assay: as above; assay type: cell-based; conditions: Salmonella enterica, aerobic, read-out: minimum inhibitory concentration (MIC)
[20] = test system: Bacteroides fragilis ATCC 23745; assay: as above; assay type: cell-based; conditions: ATCC23745, anaerobic, read-out: minimum inhibitory concentration (MIC)
[21] = test system: Bacteroides fragilis NR 2579; assay: as above; assay type: cell-based; conditions: NR2579, anaerobic, read-out: minimum inhibitory concentration (MIC)
[22] = test system: Bacteroides fragilis NR 2582; assay: as above; assay type: cell-based; conditions: NR2582, anaerobic, read-out: minimum inhibitory concentration (MIC)
[23] = test system: Bacteroides fragilis NR 2584; assay: as above; assay type: cell-based; conditions: NR2584, anaerobic, read-out: minimum inhibitory concentration (MIC)
[24] = test system: Bacteroides distasonis NR 2578; assay: as above; assay type: cell-based; conditions: Parabacteroides distasonis, NR2578, anaerobic, read-out: minimum inhibitory concentration (MIC)
[25] = test system: Bacteroides thetaiotaomicron NR 2588; assay: as above; assay type: cell-based; conditions: NR2588, anaerobic, read-out: minimum inhibitory concentration (MIC)
[26] = test system: Bifidobacterium adolescentis ATCC 15703; assay: as above; assay type: cell-based; conditions: ATCC15703, anaerobic, read-out: minimum inhibitory concentration (MIC)
[27] = test system: Clostridium botulinum NR 26ll; assay: microbe, parasite or virus in culture; assay type: cell-based; conditions: NR26LL, read-out: minimum inhibitory concentration (MIC)
[28] = test system: Clostridium perfringens NR 2612; assay: microbe, parasite or virus in culture; assay type: cell-based; conditions: NR2612, read-out: minimum inhibitory concentration (MIC)
[29] = test system: Clostridium moniliforme ATCC 25546; assay: in vitro antibacterial activity, standard agar dilution method; assay type: cell-based; conditions: ATCC25546, anaerobic, read-out: minimum inhibitory concentration (MIC)
[30] = test system: Peptococcus prevotii ATCC 9321; assay: as above; assay type: cell-based; conditions: Anaerococcus prevotii, ATCC9321, anaerobic, read-out: minimum inhibitory concentration (MIC)
[31] = test system: Peptococcus variabilis ATCC 14955; assay: as above; assay type: cell-based; conditions: anaerobic, read-out: minimum inhibitory concentration (MIC)
[32] = test system: Peptostreptococcus anaerobius NR 2743; assay: as above; assay type: cell-based; conditions: NR2743, anaerobic, read-out: minimum inhibitory concentration (MIC)
[33] = test system: Propionibacterium acnes ATCC 11828; assay: as above; assay type: cell-based; conditions: Cutibacterium acnes, ATCC11828, anaerobic, read-out: minimum inhibitory concentration (MIC)
[34] = acute toxicity by oral administration; conditions: mouse, in vivo, po
Description: The acute toxicity of these compounds was examined by oral administration in ICR mice.

Structure (SMILES) | MIC [3] [µg/mL] | MIC [4] [µg/mL] | MIC [5] [µg/mL] | MIC [6] [µg/mL] | MIC [7] [µg/mL] | MIC [8] [µg/mL] | MIC [9] [µg/mL] | MIC [10] [µg/mL] | MIC [11] [µg/mL] | MIC [12] [µg/mL] | MIC [13] [µg/mL] | MIC [14] [µg/mL] | MIC [15] [µg/mL] | MIC [16] [µg/mL] | MIC [17] [µg/mL] | MIC [18] [µg/mL] | MIC [19] [µg/mL] | MIC [20] [µg/mL] | MIC [21] [µg/mL] | MIC [22] [µg/mL] | other results
CN1COc2c(N3CCC(N)C3)c(F)cc3c(=O)c(C(=O)O)cn1c23 (centres unmarked) [Example 30, 10-(3-amino-1-pyrrolidinyl)-9-fluoro-3-methyl-7-oxo-2,3-dihydro-7H-pyrido[3,2,1-ij]-1,3,4-benzoxadiazine-6-carboxylic acid] | 0.05 (≈ 0.144 µM) | 0.2 (≈ 0.574 µM) | 0.2 (≈ 0.574 µM) | 3.13 (≈ 8.99 µM) | 0.013 (≈ 0.0373 µM) | 0.0033 (≈ 0.00947 µM) | 0.013 (≈ 0.0373 µM) | 0.013 (≈ 0.0373 µM) | 0.0065 (≈ 0.0187 µM) | 0.1 (≈ 0.287 µM) | 1.56 (≈ 4.48 µM) | 0.1 (≈ 0.287 µM) | 0.0065 (≈ 0.0187 µM) | 0.2 (≈ 0.574 µM) | 0.0033 (≈ 0.00947 µM) | 0.05 (≈ 0.144 µM) | 0.0065 (≈ 0.0187 µM) | 0.2 (≈ 0.574 µM) | 1.56 (≈ 4.48 µM) | 0.39 (≈ 1.12 µM) | MIC ([1]; Staphylococcus aureus FDA 209P JC-1, aerobic, agar dilution): 0.05 µg/mL (≈ 0.144 µM); MIC ([2]; Staphylococcus aureus, NR2855, read-out: minimum inhibitory concentration (MIC)): 0.39 µg/mL (≈ 1.12 µM); MIC [23]: 0.78 µg/mL (≈ 2.24 µM); MIC [24]: 0.78 µg/mL (≈ 2.24 µM); MIC [25]: 0.78 µg/mL (≈ 2.24 µM); MIC [26]: 0.1 µg/mL (≈ 0.287 µM); MIC [27]: 0.013 µg/mL (≈ 0.0373 µM); MIC [28]: 0.1 µg/mL (≈ 0.287 µM); MIC [29]: 0.1 µg/mL (≈ 0.287 µM); MIC [30]: 0.39 µg/mL (≈ 1.12 µM); MIC [31]: 0.2 µg/mL (≈ 0.574 µM); MIC [32]: 0.013 µg/mL (≈ 0.0373 µM); MIC [33]: 0.78 µg/mL (≈ 2.24 µM); LD50 [34]: > 2000 mg/kg
CN1CCN(c2c(F)cc3c(=O)c(C(=O)O)cn4c3c2OCN4C)CC1 [Example 5, 9-fluoro-3-methyl-10-(4-methyl-1-piperazinyl)-7-oxo-2,3-dihydro-7H-pyrido[3,2,1-ij]-1,3,4-benzoxadiazine-6-carboxylic acid] | 0.2 (≈ 0.552 µM) | 0.39 (≈ 1.08 µM) | 0.39 (≈ 1.08 µM) | 3.13 (≈ 8.64 µM) | 0.013 (≈ 0.0359 µM) | 0.013 (≈ 0.0359 µM) | 0.025 (≈ 0.069 µM) | 0.025 (≈ 0.069 µM) | 0.013 (≈ 0.0359 µM) | 0.1 (≈ 0.276 µM) | 0.2 (≈ 0.552 µM) | 0.2 (≈ 0.552 µM) | 0.013 (≈ 0.0359 µM) | 0.78 (≈ 2.15 µM) | 0.025 (≈ 0.069 µM) | 0.1 (≈ 0.276 µM) | 0.025 (≈ 0.069 µM) | 0.78 (≈ 2.15 µM) | 3.13 (≈ 8.64 µM) | 0.78 (≈ 2.15 µM) | MIC ([1]; Staphylococcus aureus): 0.39 µg/mL (≈ 1.08 µM); MIC ([2]; NR2855, Staphylococcus aureus NR 2855, aerobic, agar dilution, read-out: minimum inhibitory concentration (MIC)): 0.2 µg/mL (≈ 0.552 µM); MIC [23]: 0.78 µg/mL (≈ 2.15 µM); MIC [24]: 0.78 µg/mL (≈ 2.15 µM); MIC [25]: 1.56 µg/mL (≈ 4.31 µM); MIC [26]: 0.39 µg/mL (≈ 1.08 µM); MIC [27]: 0.1 µg/mL (≈ 0.276 µM); MIC [28]: 0.39 µg/mL (≈ 1.08 µM); MIC [29]: 0.78 µg/mL (≈ 2.15 µM); MIC [30]: 1.56 µg/mL (≈ 4.31 µM); MIC [31]: 0.78 µg/mL (≈ 2.15 µM); MIC [32]: 0.39 µg/mL (≈ 1.08 µM); MIC [33]: 0.78 µg/mL (≈ 2.15 µM); LD50 [34]: > 2000 mg/kg
